Laboratory results reported in patent US20250017903A1, “USE OF EDARAVONE IN TREATMENT OF AUTISM SPECTRUM DISORDER” (SUZHOU AUZONE BIOLOGICAL TECHNOLOGY CO., LTD., priority 2021, published 2025).

Columns and labels:
[1] = system: glutathione S-transferase (GST); assay: GST activity detection in brain tissue of VPA model rats; format: in vivo, rat; conditions: for GST activity in the hippocampus (HIP) / GST activity in the prefrontal cortex (PFC): after 28 days of gavage, mean ± SE
Protocol: (§1) On the 26th day after the offspring were born, the modeled VPA group was randomly divided into 6 groups: placebo group (n=19, soluplus 428 mg/kg), positive drug (cromolyn sodium) group (n=14, cromolyn sodium 6.3 mg/kg), positive drug solvent (NS) group (n=12, equal dose of normal saline), EDA low-dose group (n=12, Edaravone 3 mg/kg), EDA medium-dose group (n=12, Edaravone 10 mg/kg) and EDA high-dose group (n=22, Edaravone 30 mg/kg); and another CON group (n=9). The positive drug group and the positive drug solvent group were given intraperitoneal injection, and the placebo group and each dose group of EDA were administrated by oral gavage, once a day for 28 consecutive days. Three-chamber social tests were conducted after 14 and 28 days of administration, and an open field test was conducted after 28 days of administration. After the animals were sacrificed, 6 animals were randomly selected from each group of the placebo group and each dose group of EDA, and the prefrontal cortex, hippocampus, cerebellum and blood were collected to detect oxidative stress-related indicators, so as to detect the antioxidant capacity of the body.
After 28 days of gavage treatment, the results of glutathione S-transferase (GST) activity detection in the prefrontal cortex (PFC) and hippocampus (HIP) are shown in Table 4.

[2] = system: VPA-induced autism model rats; assay: Open field test (grooming time) in VPA-induced rat autism model; format: in vivo; conditions: for Grooming time: VPA rats, mean ± SE, in s (unit assumed); for Grooming time compared with before treatment: self-comparison, p<0.05 (FIG. 5)
Protocol: (§2) Twenty-five SD pregnant rats were given a single intraperitoneal injection of 500 mg/kg sodium valproate (VPA) on 12.5 embryonic day and delivered on 21 embryonic day, and the male offspring were retained as the VPA group. Five pregnant rats in the control group were given a single intraperitoneal injection of normal saline of the same amount on 12.5 embryonic day and delivered on 21 embryonic day; and the male offspring were designated as the CON group.
(§3) When the offspring rats were 25th day old, an open field test was conducted to observe the grooming time, which reflects the repetitive and stereotyped behaviors of the animals); a three-chamber social test was conducted to observe the Social Index (SI), Social Index=(Time when the animal enters the unfamiliar rat area-time when the animal enters the empty cage area)÷(time when the animal enters the unfamiliar rat area+time when the animal enters the empty cage area), reflecting the social ability of experimental animals.
as §1

[3] = system: VPA-induced autism model rats; assay: Three-chamber social test (social index) in VPA-induced rat autism model; format: in vivo; conditions: for Social index (SI): VPA rats, mean ± SE
Protocol: as §2, §3, §1

cysteine (Cys) = assay: Cys content detection in serum of VPA model rats; format: in vivo, rat; conditions: for Cys content in serum: after 28 days of gavage, mean ± SE
Protocol: as §1

[4] = system: superoxide dismutase (SOD); assay: SOD activity detection in brain tissue of VPA model rats; format: in vivo, rat; conditions: for SOD activity in the cerebellum (CE) / SOD activity in the prefrontal cortex (PFC): after 28 days of gavage, mean ± SE
Protocol: as §1
After 28 days of gavage treatment, the results of superoxide dismutase (SOD) activity detection in the prefrontal cortex (PFC) and cerebellum (CE) are shown in Table 3.

[5] = system: reduced glutathione (GSH); assay: GSH detection in hippocampus and serum of VPA model rats; format: in vivo, rat; conditions: for GSH activity in the hippocampus (HIP) / GSH activity in the serum: after 28 days of gavage, mean ± SE
Protocol: as §1
After 28 days of gavage treatment, the results of reduced glutathione (GSH) activity detection in hippocampus (HIP) and serum are shown in Table 5.

[6] = Day 28, EDA 3 mg/kg oral gavage once a day
[7] = Day 28, EDA 10 mg/kg oral gavage once a day
[8] = Day 28, EDA 30 mg/kg oral gavage once a day
[9] = before treatment (baseline), EDA 3 mg/kg group
[10] = before treatment (baseline), EDA 10 mg/kg group
[11] = before treatment (baseline), EDA 30 mg/kg group
[12] = after 14 days of treatment, each dose group of EDA and cromolyn sodium group, p<0.01 (FIG. 4)
[13] = Day 28, cromolyn sodium 6.3 mg/kg intraperitoneal once a day
[14] = before treatment (baseline), cromolyn sodium 6.3 mg/kg group

CC1=NN(c2ccccc2)C(=O)C1 [EDA, 3-methyl-1-phenyl-2-pyrazolin-5-one]
GST activity in the hippocampus (HIP) ([1]; EDA 3 mg/kg): 144.5 ± 59.64 U/mgprot | GST activity in the prefrontal cortex (PFC) ([1]; EDA 3 mg/kg): 39.54 ± 13.34 U/mgprot | GST activity in the hippocampus (HIP) ([1]; EDA 10 mg/kg): 117.7 ± 28.12 U/mgprot | GST activity in the prefrontal cortex (PFC) ([1]; EDA 10 mg/kg): 46.93 ± 13.31 U/mgprot | GST activity in the hippocampus (HIP) ([1]; EDA 30 mg/kg): 295.4 ± 54.67 U/mgprot | GST activity in the prefrontal cortex (PFC) ([1]; EDA 30 mg/kg): 103.8 ± 22.27 U/mgprot | GST activity in the prefrontal cortex (PFC) compared with the placebo group ([1]; high-dose EDA group, p<0.01 (FIG. 9)): significantly increased | GST activity in the hippocampus (HIP) compared with the placebo group ([1]; high-dose EDA group, p<0.01 (FIG. 10)): significantly increased | Grooming time [2, 6]: 6.29 ± 1.72 | Grooming time [2, 7]: 5.04 ± 1.67 | Grooming time [2, 8]: 17.27 ± 5.78 | Grooming time compared with the placebo group ([2]; after 28 days of continuous gavage, each dose group of EDA, p<0.05, low and medium dose p<0.01 (FIG. 6)): significantly reduced | Grooming time compared with before treatment ([2]; after 28 days of treatment): significantly reduced | Grooming time compared with the positive drug (cromolyn sodium) group ([2]; after 28 days, EDA low-dose (3 mg/kg) and medium-dose (10 mg/kg) groups (FIG. 6)): significantly reduced | Grooming time [2, 9]: 29.17 ± 5.82 | Grooming time [2, 10]: 20.76 ± 4.42 | Grooming time [2, 11]: 36.3 ± 5.08 | Social index (SI) ([3]; Day 14, EDA 3 mg/kg oral gavage once a day): 0.37 ± 0.14 | Social index (SI) ([3]; Day 14, EDA 10 mg/kg oral gavage once a day): 0.42 ± 0.15 | Social index (SI) ([3]; Day 14, EDA 30 mg/kg oral gavage once a day): 0.51 ± 0.11 | Social index (SI) [3, 6]: 0.48 ± 0.10 | Social index (SI) [3, 7]: 0.53 ± 0.09 | Social index (SI) [3, 8]: 0.55 ± 0.06 | Social index compared with the placebo group [3, 12]: significantly improved | Social index compared with the placebo group ([3]; after 28 days of treatment, each dose group of EDA, p<0.05, high dose p<0.01 (FIG. 4)): significantly improved | Social index (SI) [3, 9]: −0.12 ± 0.11 | Social index (SI) [3, 10]: −0.07 ± 0.15 | Social index (SI) [3, 11]: −0.04 ± 0.12 | Social index compared with before treatment ([3]; each dose group, after 14 and 28 days of continuous gavage, self-comparison (FIG. 3)): increased significantly | Cys content in the blood compared with the placebo group (cysteine (Cys); EDA high-dose group, after 28 days of treatment, p<0.0001 (FIG. 13)): significantly higher | Cys content in serum (cysteine (Cys); EDA 3 mg/kg): 0.35 ± 0.05 µmol/mL | Cys content in serum (cysteine (Cys); EDA 10 mg/kg): 0.38 ± 0.13 µmol/mL | Cys content in serum (cysteine (Cys); EDA 30 mg/kg): 1.15 ± 0.10 µmol/mL | SOD activity in the prefrontal cortex compared with the placebo group ([4]; EDA medium-dose and high-dose groups, p<0.05, high dose p<0.001 (FIG. 7)): significantly increased | SOD activity in the cerebellum (CE) ([4]; EDA 3 mg/kg): 67.04 ± 11.3 U/mgprot | SOD activity in the prefrontal cortex (PFC) ([4]; EDA 3 mg/kg): 124.6 ± 5.73 U/mgprot | SOD activity in the cerebellum (CE) ([4]; EDA 10 mg/kg): 83.07 ± 3.39 U/mgprot | SOD activity in the prefrontal cortex (PFC) ([4]; EDA 10 mg/kg): 203.4 ± 14.37 U/mgprot | SOD activity in the cerebellum (CE) ([4]; EDA 30 mg/kg): 138.7 ± 18.62 U/mgprot | SOD activity in the prefrontal cortex (PFC) ([4]; EDA 30 mg/kg): 315 ± 42.53 U/mgprot | GSH activity in the serum compared with the placebo group ([5]; EDA high-dose group, p<0.01 (FIG. 12)): even more significantly increased | GSH activity in the hippocampus (HIP) compared with the placebo group ([5]; EDA high-dose group, p<0.05 (FIG. 11)): significantly increased | GSH activity in the hippocampus (HIP) ([5]; EDA 3 mg/kg): 14.44 ± 7.97 U/mgprot | GSH activity in the serum ([5]; EDA 3 mg/kg): 9.6 ± 2.14 U/mgprot | GSH activity in the hippocampus (HIP) ([5]; EDA 10 mg/kg): 49.39 ± 10.34 U/mgprot | GSH activity in the serum ([5]; EDA 10 mg/kg): 10.35 ± 1.92 U/mgprot | GSH activity in the hippocampus (HIP) ([5]; EDA 30 mg/kg): 78.87 ± 17.13 U/mgprot | GSH activity in the serum ([5]; EDA 30 mg/kg): 21.45 ± 0.86 U/mgprot

O=C(O)c1cc(=O)c2c(OCC(O)COc3cccc4oc(C(=O)O)cc(=O)c34)cccc2o1 [cromolyn sodium]
Grooming time [2, 13]: 12.41 ± 2.01 | Grooming time, positive drug solvent group versus positive drug group ([2]; after 28 days of treatment, cromolyn sodium 6.3 mg/kg intraperitoneal (FIG. 6)): no significant difference | Grooming time compared with before treatment ([2]; after 28 days of treatment): significantly reduced | Grooming time [2, 14]: 27.63 ± 5.78 | Social index (SI) ([3]; Day 14, cromolyn sodium 6.3 mg/kg intraperitoneal once a day): 0.08 ± 0.37 | Social index (SI) [3, 13]: 0.42 ± 0.07 | Social index compared with the placebo group [3, 12]: significantly improved | Social index, positive drug versus positive drug solvent group ([3]; after 28 days of treatment, cromolyn sodium 6.3 mg/kg intraperitoneal (FIG. 4)): no significant difference | Social index (SI) [3, 14]: −0.13 ± 0.12
